Columns and labels:
Assay type in all cases: functional
Phytophthora infestans [1] = experiment: Antifungal activity against Phytophthora infestans assessed as inhibition at 25 mg/L relative to control
Pyricularia oryzae [2] = experiment: Antifungal activity against Magnaporthe oryzae assessed as inhibition at 0.92 mg/L relative to control
Pyricularia oryzae [3] = experiment: Antifungal activity against Magnaporthe oryzae assessed as inhibition at 25 mg/L relative to control
Blumeria graminis [4] = experiment: Antifungal activity against Blumeria graminis assessed as inhibition at 1.56 mg/L relative to control
Blumeria graminis [5] = experiment: Antifungal activity against Blumeria graminis assessed as inhibition at 6.25 mg/L relative to control
Blumeria graminis [6] = experiment: Antifungal activity against Blumeria graminis assessed as inhibition at 400 mg/L relative to control
Phytophthora infestans [7] = experiment: Antifungal activity against Phytophthora infestans assessed as inhibition at 0.92 mg/L relative to control
[8] = system: Pseudoperonospora cubensis; experiment: Antifungal activity against Pseudoperonospora cubensis assessed as inhibition at 400 mg/L relative to control
[9] = system: Pseudoperonospora cubensis; experiment: Antifungal activity against Pseudoperonospora cubensis assessed as inhibition at 6.25 mg/L relative to control
[10] = system: Pseudoperonospora cubensis; experiment: Antifungal activity against Pseudoperonospora cubensis assessed as inhibition at 25 mg/L relative to control
Myzus persicae = experiment: Insecticidal activity against Myzus persicae (green peach aphid) at 600 mg/L relative to control

Structure (SMILES) | inhibition at 25 µg/mL (Phytophthora infestans [1]) [%] | inhibition at 0.92 µg/mL (Pyricularia oryzae [2]) [%] | inhibition at 25 µg/mL (Pyricularia oryzae [3]) [%] | inhibition at 1.56 µg/mL (Blumeria graminis [4]) [%] | inhibition at 6.25 µg/mL (Blumeria graminis [5]) [%] | inhibition at 400 µg/mL (Blumeria graminis [6]) [%] | inhibition at 0.92 µg/mL (Phytophthora infestans [7]) [%] | inhibition at 400 µg/mL [8] [%] | inhibition at 6.25 µg/mL [9] [%] | inhibition at 25 µg/mL [10] [%] | Activity (Myzus persicae) [%]
CCc1ccc(-c2nn(C)c(OCc3ccccc3/C(=N\OC)C(=O)NC)c2C)cc1 | 100 | 0 | 100 | 90 | 100 | 100 | 80 | 50 | – | – | –
CO/N=C(/C(=O)OC)c1ccccc1COc1c(C)c(-c2ccc(Cl)cc2)nn1C | 100 | – | 50 | 98 | 100 | 100 | 100 | 100 | 100 | 100 | –
CNC(=O)/C(=N/OC)c1ccccc1COc1cc(-c2ccccc2Cl)nn1C | 100 | – | 0 | 55 | 90 | 100 | 0 | 90 | – | 40 | –
CCOc1ccc(-c2nn(C)c(OCc3ccccc3/C(=N\OC)C(=O)NC)c2C)cc1 | 100 | 100 | 100 | 70 | 100 | 100 | 50 | 98 | – | 20 | –
CO/N=C(/C(=O)OC)c1ccccc1COc1c(C)c(-c2ccc(OC)cc2)nn1C | 100 | 80 | 100 | 30 | 85 | 100 | 50 | 100 | 15 | 55 | –
CNC(=O)/C(=N/OC)c1ccccc1COc1cc(-c2ccc(C)cc2C)nn1C | 100 | 50 | 100 | 30 | 100 | 100 | 100 | 100 | 70 | 100 | –
CO/N=C(/C(=O)OC)c1ccccc1COc1c(C)c(-c2ccc(C)cc2C)nn1C | 100 | 80 | 100 | 75 | 100 | 100 | 100 | 100 | 98 | 100 | –
CO/N=C(/C(=O)OC)c1ccccc1COc1c(C)c(-c2ccc(C(C)(C)C)cc2)nn1C | 0 | – | 50 | – | – | 70 | – | 40 | – | – | –
CNC(=O)/C(=N/OC)c1ccccc1COc1cc(-c2ccc(C(C)(C)C)cc2)nn1C | 100 | 50 | 100 | – | – | 0 | 50 | 80 | – | 0 | –
CNC(=O)/C(=N/OC)c1ccccc1COc1c(C)c(-c2ccc(C)cc2C)nn1C | 100 | 50 | 100 | 65 | 100 | 100 | 100 | 100 | 100 | 100 | –
CNC(=O)/C(=N/OC)c1ccccc1COc1c(C)c(-c2ccc(Cl)cc2)nn1C | 100 | – | 0 | 85 | 100 | 100 | – | 80 | – | 40 | –
CNC(=O)/C(=N/OC)c1ccccc1COc1c(C)c(-c2ccc(C)cc2)nn1C | 100 | – | 0 | 40 | 95 | 100 | 100 | 65 | – | – | –
CNC(=O)/C(=N/OC)c1ccccc1COc1cc(-c2ccc(OC)cc2)nn1C | 100 | 80 | 100 | – | 0 | 100 | 0 | 98 | – | 30 | –
CO/N=C(/C(=O)OC)c1ccccc1COc1cc(-c2ccccc2)nn1C | 0 | – | 0 | – | – | 70 | – | 95 | – | 70 | 100
CO/C=C(/C(=O)OC)c1ccccc1Oc1cc(Oc2ccccc2C#N)ncn1 [AZOXYSTROBIN] | – | – | 100 | 60 | 100 | 100 | – | 100 | 95 | 100 | –
CO/N=C(/C(=O)OC)c1ccccc1COc1c(C)c(-c2ccc(C)cc2)nn1C | 100 | – | 50 | 100 | 100 | 100 | 100 | 95 | – | 60 | –
CO/N=C(/C(=O)OC)c1ccccc1COc1c(C)c(-c2ccc(OCC(F)(F)F)cc2)nn1C | 50 | 80 | 100 | 15 | 70 | 100 | – | 80 | – | 0 | –
CO/N=C(/C(=O)OC)c1ccccc1COc1ccccc1C [KRESOXIM-METHYL] | 100 | – | 100 | 100 | 100 | 100 | – | – | 0 | 35 | –
CO/N=C(/C(=O)OC)c1ccccc1COc1cc(-c2ccccc2Cl)nn1C | 100 | 0 | 100 | 45 | 75 | 100 | 0 | 80 | – | 30 | –
CCc1ccc(-c2nn(C)c(OCc3ccccc3/C(=N\OC)C(=O)OC)c2C)cc1 | 100 | – | 50 | 100 | 100 | 100 | 80 | 98 | 50 | 70 | –
CNC(=O)/C(=N/OC)c1ccccc1COc1c(C)c(-c2ccc(C)c(C)c2)nn1C | 100 | 80 | 100 | 55 | 100 | 100 | 100 | 100 | 40 | 100 | –
CO/N=C(/C(=O)OC)c1ccccc1COc1cc(-c2ccccc2OC)nn1C | 0 | 50 | 100 | 40 | 90 | 100 | – | 50 | – | – | –
CO/N=C(/C(=O)OC)c1ccccc1COc1c(C)c(-c2ccc(C)c(C)c2)nn1C | 100 | 80 | 100 | 60 | 100 | 100 | 100 | 100 | 70 | 75 | –
CNC(=O)/C(=N/OC)c1ccccc1COc1c(C)c(-c2ccc(C(C)(C)C)cc2)nn1C | 100 | 100 | 100 | 0 | 0 | 100 | 40 | 95 | – | 20 | –
CNC(=O)/C(=N/OC)c1ccccc1COc1cc(-c2ccccc2)nn1C | – | – | 0 | – | – | 50 | – | 100 | 70 | 100 | –
CO/N=C(/C(=O)OC)c1ccccc1COc1cc(-c2ccc(OC)cc2)nn1C | 100 | – | 0 | – | 10 | 100 | 0 | 98 | – | 50 | –
CO/N=C(/C(=O)OC)c1ccccc1COc1cc(-c2ccc(C(C)(C)C)cc2)nn1C | 100 | 80 | 100 | – | – | 0 | 60 | 95 | – | 0 | –
CNC(=O)/C(=N/OC)c1ccccc1COc1c(C)c(-c2ccc(OCC(F)(F)F)cc2)nn1C | 100 | 50 | 80 | 40 | 100 | 100 | 50 | 100 | 30 | 80 | –

Reference: ChEMBL document CHEMBL3044728, “Synthesis and biological activity of new (E)-alpha-(Methoxyimino)benzeneacetate derivatives containing a substituted pyrazole ring” (2010)
